Experimental data from article PMC9750872, “Ras-mutant cancers are sensitive to small molecule inhibition of V-type ATPases in mice” (Nature biotechnology, 2022).

Columns and labels:
Yeast V-ATPase = biological target: T1, Yeast V-ATPase (Saccharomyces cerevisiae, UniProt P25515+P41807); assay: Biochemical V-ATPase (ATP hydrolysis) assay
T1 construct: V-ATPase was purified as described previously from yeast[82] using the detergent dodecylmaltoside; endogenous in cells; host or cells: yeast
Method: V-ATPase was purified as described previously from yeast[82] using the detergent dodecylmaltoside and porcine kidney[83] using the detergent glycol-diosgenin. ATPase assays with purified V-ATPase were performed as described previously. 249C (mammalian: 0.1, 1, 10, 100 μM and yeast: 5, 10 and 100 μM) or BafA1 (1 μM) were added to the reaction and compared with a negative control to which only DMSO was added. Enzyme-coupled ATPase biochemical activity assays were performed in a 96-well plate as described previously. […]
appears to cause accumulation of high molecular weight entities. Representative of 3 independent experiments. […]
observed. Data shown are mean ± SD ( n = 3) Two-tailed student’s t-test (C) ATP-dependent fluorescence quenching in yeast (me an ± SD; n = 3 ) Two-t ailed student’s t-test (D) SDS PAGE over th e cou rse of recombinant human ATP6V1H protein purification. 1. Mark ers; 2. Total l ysate (GST-fusion […]); 3. Soluble lysate; 4.
GSTrap flow-through; 5. GSTrap elute; 6. Post thrombin cleavage (target 54 kDa, GST 25 kDa); 7. Subtractive GSTrap flow -through; 8. Markers; 9. Final sample, 1 µg protein load. Repres entative of 2 independent ex periments. (E) Structure of biotin- 249C. […]
interfere with V-ATPas e binding. ( F) Experimental schematic of Bio-la yer inferometr y (B L I) .
(1 picture or pasted object on this page, not shown here)

MEFs KRASWT = assay: Cell proliferation of Ras-less MEFs expressing human KRAS/BRAF; conditions: Mus musculus
Method: Cell proliferation assays of stable cell lines treated with V-ATPase inhibitors 249C and BafA1, HCQ analog (DC661), KRASG12C inhibitor (AMG510) and autophagy inducer (CMA). For each bar, n = 3. Representative of 3 biological replicates (mean ± SD). Two-sided t-test with no adjustments for multiple comparisons.
Logarithmically growing cells were plated in antibiotic-free medium supplemented with 2% fetal bovine serum at a density of 5,000 cells per well. The next day, cells were treated in triplicates with increasing doses of in-house small molecule inhibitor drugs and a DMSO vehicle control for 3 days and subsequently assessed for cell viability by measurement of ATP with CellTiter-Glo Luminescent Cell Viability Assay (Promega). Signal intensity was read on a Glomax™ 96 Microplate Luminometer (Promega) with GLOMAX software (version 1.9.3) and percent cell survival was calculated based on the reading of vehicle control cells set as 100% using Excel (2012) and GraphPad Prism (version 6)Each compound was tested a minimum of 2 times with n = 3. All cell proliferation assays (cancer cell lines or MEFs) were done in a similar way.

[1] = biological target: T2, entire mammalian V-ATPase complex (Sus scrofa, UniProt Q9TVC1); assay: Bio-layer interferometry (BLI); type: binding, porcine; conditions: biotinylated-249C on streptavidin sensors
T2 construct: the entire V-ATPase complex (800 kDa) was purified as described previously from porcine kidneys; from tissue; host or cells: porcine kidney
T2 sequence (Q9TVC1 whole entry): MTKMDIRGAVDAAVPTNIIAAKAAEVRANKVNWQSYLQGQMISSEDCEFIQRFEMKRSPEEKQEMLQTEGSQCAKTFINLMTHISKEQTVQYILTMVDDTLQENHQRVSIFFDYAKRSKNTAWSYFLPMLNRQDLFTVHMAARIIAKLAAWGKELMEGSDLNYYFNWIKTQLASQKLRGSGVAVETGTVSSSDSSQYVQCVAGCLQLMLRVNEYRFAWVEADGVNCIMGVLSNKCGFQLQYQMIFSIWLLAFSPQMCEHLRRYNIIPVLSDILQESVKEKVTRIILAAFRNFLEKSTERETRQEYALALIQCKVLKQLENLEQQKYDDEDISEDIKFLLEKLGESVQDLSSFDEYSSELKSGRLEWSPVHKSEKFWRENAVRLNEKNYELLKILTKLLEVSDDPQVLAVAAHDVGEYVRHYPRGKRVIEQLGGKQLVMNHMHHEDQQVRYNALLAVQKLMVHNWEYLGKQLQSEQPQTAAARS
T2 sequence (Q29048 whole entry partner): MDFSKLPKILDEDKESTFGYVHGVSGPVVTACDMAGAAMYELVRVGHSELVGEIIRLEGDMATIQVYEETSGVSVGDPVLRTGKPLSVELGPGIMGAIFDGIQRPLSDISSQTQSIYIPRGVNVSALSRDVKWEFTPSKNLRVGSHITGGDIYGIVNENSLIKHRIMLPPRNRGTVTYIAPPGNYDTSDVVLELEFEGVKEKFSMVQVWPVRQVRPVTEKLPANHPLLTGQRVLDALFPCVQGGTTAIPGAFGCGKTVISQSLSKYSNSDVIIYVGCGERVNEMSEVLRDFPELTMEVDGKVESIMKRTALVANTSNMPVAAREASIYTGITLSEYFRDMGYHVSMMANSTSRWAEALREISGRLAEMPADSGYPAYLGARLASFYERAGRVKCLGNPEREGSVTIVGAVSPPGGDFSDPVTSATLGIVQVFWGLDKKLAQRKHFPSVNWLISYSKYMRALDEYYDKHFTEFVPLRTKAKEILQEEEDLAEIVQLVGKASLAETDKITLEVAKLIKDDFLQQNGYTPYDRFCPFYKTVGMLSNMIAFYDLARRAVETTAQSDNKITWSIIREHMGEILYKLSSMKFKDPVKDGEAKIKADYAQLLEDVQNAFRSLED
Excerpt: Figure 4. […] (A) Model of the reversible assembly of V-ATPase. Cytosolic V1 subunits are depicted in blue and membrane Vo subunits in purple. Upon V-ATPase assembly, ATP is hydrolyzed to ADP accompanied by proton (H^+) pumping and luminal acidification (decrease in pH) (Created with BioRender). […] The amount of subunit B2 present in the membrane fraction indicates the amount of assembled V-ATPase. A representative Western blot is presented. […] Cells were mechanically lysed, and a fraction containing FITC-Dextran-loaded lysosomes was isolated by sedimentation centrifugation. Fluorescence was measured over time to assess pH-dependent quenching following addition of 1 mM magnesium-ATP (predetermined). […] Representative of 5 individual experiments with n = 3 for each is presented (mean ± SD) (D) Mammalian V-ATPase activity measured in the absence and presence of 1 μM 249C and 1 μM BafA1. Data shown are mean ± SD; n = 3. Bio-layer inferometry (BLI) of (E) the entire mammalian V-ATPase complex (association protein concentrations: 30, 60, 120, 240 nM) and (F) the individual human H subunit (ATP6V1H) (association protein concentrations: 16,800 and 21,000 nM) against biotinylated-249C loaded onto streptavidin sensor tips. A reference sensor was subtracted from the signal to blank the system. The ForteBio Octet® Software on the BLI system was used to calculate Kd s. […]

T1 sequence (P25515 whole entry): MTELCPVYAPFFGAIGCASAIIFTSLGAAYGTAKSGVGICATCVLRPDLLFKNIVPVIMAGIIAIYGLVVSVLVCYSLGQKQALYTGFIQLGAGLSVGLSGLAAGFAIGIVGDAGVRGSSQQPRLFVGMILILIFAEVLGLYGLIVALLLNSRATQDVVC
T1 sequence (P41807 2-478): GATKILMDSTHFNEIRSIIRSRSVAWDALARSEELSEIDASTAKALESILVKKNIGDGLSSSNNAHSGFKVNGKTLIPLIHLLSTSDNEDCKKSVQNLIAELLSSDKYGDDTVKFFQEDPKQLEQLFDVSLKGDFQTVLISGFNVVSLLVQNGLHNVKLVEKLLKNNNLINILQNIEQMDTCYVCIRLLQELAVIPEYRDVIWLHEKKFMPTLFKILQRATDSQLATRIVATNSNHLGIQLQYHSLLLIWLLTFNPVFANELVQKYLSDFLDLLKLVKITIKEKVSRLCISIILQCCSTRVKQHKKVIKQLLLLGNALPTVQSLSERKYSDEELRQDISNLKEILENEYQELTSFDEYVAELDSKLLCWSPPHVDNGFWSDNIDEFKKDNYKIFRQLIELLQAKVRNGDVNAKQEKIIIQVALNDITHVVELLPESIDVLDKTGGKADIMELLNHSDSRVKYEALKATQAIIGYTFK

CN1CCOC(CNC(=O)C2(C)C(c3ccc(Cl)o3)C(c3ccc(F)cc3F)=NN2c2ccc(F)cc2F)C1 (stereo not drawn) [Compound 249C]
Yeast V-ATPase activity (Yeast V-ATPase): modest inhibition
IC50 (MEFs KRASWT): 1250 nM
Kd [1]: 23 nM
